The text below walks through data of ChEMBL document CHEMBL1145395, “De novo design of selective antibiotic peptides by incorporation of unnatural amino acids” (J Med Chem, 2007).

As a reminder, the MIC is the lowest concentration found to suppress growth. A low value points to a more susceptible organism.

Converted amounts (≈) assume the structure as drawn. Non-standard residues stand in square brackets, D forms with d. Residues, ends and D or L forms follow the SMILES beside them. ξ: configuration not given here. Pro(3ξ,4ξ-(CH2)4) = O=C(O)[C@H]1NCC2CCCCC21; Oic = O=C(O)[C@@H]1C[C@@H]2CCCC[C@@H]2N1; Tic = O=C(O)[C@@H]1Cc2ccccc2CN1; ξTic = O=C(O)C1Cc2ccccc2CN1; Orn = NCCC[C@H](N)C(=O)O; GABA = NCCCC(=O)O

Data set [1] is described as follows: Toxicity to mouse RBC assessed as hemolytic activity at 100 uM. It counts as cell-based, Erythrocyte. To be noted: red blood cells, read-out: Activity.
Data set [2] can be described thus: Toxicity to mouse RBC assessed as hemolytic activity at 25 uM. Format: cell-based, Erythrocyte. Particulars: red blood cells, read-out: Activity.
The subject of data set [3] is Mus musculus. Put plainly: Acute toxicity in mouse at 1 mg/kg, ip after 6 days. Details: dose 1 mg/kg, route intraperitoneal. Format: organism-based. Particulars: in vivo, 144 h.
The next data set deals with Bacillus subtilis. Put plainly: Antibacterial activity against Bacillus subtilis ATCC 43223. Format: functional.
The next data set deals with Staphylococcus aureus. Put plainly: Antibacterial activity against methicillin/gentamicin/tetracycline resistant Staphylococcus aureus ATCC 33592. Format: functional.
Data set [4] deals with Mus musculus. Put plainly: Acute toxicity in mouse at 5 mg/kg, ip after 6 days. It counts as organism-based. Details: dose 5 mg/kg, route intraperitoneal. To be noted: in vivo, 144 h.
In another data set the test system is Mycobacterium. As to the kind of experiment: Antibacterial activity against Mycobacterium ranae ATCC 110. It counts as functional.
For data set [5], the system named is Mus musculus. Put plainly: Acute toxicity in mouse at 25 mg/kg, ip after 6 days. Details: dose 25 mg/kg, route intraperitoneal. Format: organism-based. To be noted: in vivo, 144 h.
The test system of the next data set is Salmonella typhimurium. Put plainly: Antibacterial activity against Salmonella Typhimurium ATCC 13311. Format: functional, Salmonella enterica subsp. enterica serovar Typhimurium. To be noted: Salmonella enterica.
Data set [6] concerns Mus musculus. Put plainly: Acute toxicity in mouse at 125 mg/kg, ip after 6 days. Details: dose 125 mg/kg, route intraperitoneal. To be noted: in vivo, 144 h. Format: organism-based.
In data set [7] the test system is Mus musculus. Put plainly: Effect on wound healing in CD1 mouse skin at 100 ug applied topically after 3 days. Format: functional.
For data set [8], the system named is Mus musculus. As to the kind of experiment: Effect on wound healing in CD1 mouse skin at 100 ug applied topically. It counts as functional.
The subject of data set [9] is Mus musculus. As to the kind of experiment: Effect on wound healing in CD1 mouse skin at 100 ug applied topically after 7 days. Format: functional.
Data set [10] relates to Mus musculus. Put plainly: Effect on wound healing in CD1 mouse skin at 100 ug applied topically after 5 days. Format: functional.
Data set [11] has as its system Mus musculus. As to the kind of experiment: Effect on wound healing in CD1 mouse skin at 100 ug applied topically after 11 days. It counts as functional.
The subject of data set [12] is Mus musculus. As to the kind of experiment: Effect on wound healing in CD1 mouse skin at 100 ug applied topically after 9 days. It counts as functional.

Take `CC(=O)N[C@@H](Cc1ccccc1)C(=O)N1Cc2ccccc2C[C@H]1C(=O)N1CC2CCCCC2[C@H]1C(=O)N[C@@H](CCCCN)C(=O)N1Cc2ccccc2C[C@H]1C(=O)N1CC2CCCCC2[C@H]1C(=O)N[C@@H](Cc1ccccc1)C(=O)N1Cc2ccccc2C[C@H]1C(=O)N1CC2CCCCC2[C@H]1C(=O)N[C@@H](CCCCN)C(=O)N1Cc2ccccc2C[C@H]1C(=O)N[C@@H](CCCCN)C(=O)N[C@@H](CCCCN)C(=O)N[C@@H](CCCCN)C(=O)N[C@@H](CCCCN)C(N)=O` (stereo partly specified) (Ac-F[Tic][Pro(3ξ,4ξ-(CH2)4)]K[Tic][Pro(3ξ,4ξ-(CH2)4)]F[Tic][Pro(3ξ,4ξ-(CH2)4)]K[Tic]KKKK-NH2): the hemolysis at 100 µM in [1] came to 86.8%. In data set [2], the hemolysis at 25 µM amounted to 50%. The Activity entry with Mus musculus [3], in the data set on Mus musculus [4] and in the data set with Mus musculus [5] was “Non-toxic” throughout. Further, the MIC in the data set with Bacillus subtilis turned out to be 1 µM (≈ 2.21 µg/mL); in the data set on Staphylococcus aureus, 3 µM (≈ 6.64 µg/mL); in the data set with Mycobacterium it was 30 µM (≈ 66.4 µg/mL); against Salmonella typhimurium, 10 µM (≈ 22.1 µg/mL).
Regarding `CC(=O)NCC(=O)N[C@@H](Cc1ccccc1)C(=O)N1Cc2ccccc2C[C@H]1C(=O)N1[C@H](C(=O)NCC(=O)N[C@@H](CCCCN)C(=O)N2Cc3ccccc3C[C@H]2C(=O)N2[C@H](C(=O)NCC(=O)N[C@@H](Cc3ccccc3)C(=O)N3Cc4ccccc4C[C@H]3C(=O)N3[C@H](C(=O)NCC(=O)N[C@@H](CCCCN)C(=O)N4Cc5ccccc5C[C@H]4C(=O)N[C@@H](CCCCN)C(=O)N[C@@H](CCCCN)C(=O)N[C@@H](CCCCN)C(=O)N[C@@H](CCCCN)C(N)=O)C[C@@H]4CCCC[C@@H]43)C[C@@H]3CCCC[C@@H]32)C[C@@H]2CCCC[C@@H]21` (Ac-GF[Tic][Oic]GK[Tic][Oic]GF[Tic][Oic]GK[Tic]KKKK-NH2) [listing 1 of 2 here], the hemolysis at 100 µM in data set [1] is 14%. Moreover, the Activity result in the data set with Mus musculus [6], in the data set with Mus musculus [4] and with Mus musculus [5] was “Toxic” throughout.
Consider `CC(=O)NCC(=O)N[C@@H](Cc1ccccc1)C(=O)N1Cc2ccccc2C[C@H]1C(=O)N1[C@H](C(=O)NCC(=O)N[C@@H](CCCCN)C(=O)N2Cc3ccccc3C[C@H]2C(=O)N2[C@H](C(=O)NCC(=O)N[C@@H](Cc3ccccc3)C(=O)N3Cc4ccccc4C[C@H]3C(=O)N3[C@H](C(=O)NCC(=O)N[C@@H](CCCCN)C(=O)N4Cc5ccccc5C[C@H]4C(=O)N[C@@H](CCCCN)C(=O)N[C@@H](CCCCN)C(=O)N[C@@H](CCCCN)C(=O)N[C@@H](CCCCN)C(N)=O)C[C@@H]4CCCC[C@@H]43)C[C@@H]3CCCC[C@@H]32)C[C@@H]2CCCC[C@@H]21` (Ac-GF[Tic][Oic]GK[Tic][Oic]GF[Tic][Oic]GK[Tic]KKKK-NH2) [listing 2 of 2 here], for which the Activity in the data set on Mus musculus [7] is 36.3%; in the data set on Mus musculus [9], 63.3%; in the data set with Mus musculus [10], 51.5%; with Mus musculus [11], 77.5%; with Mus musculus [12] it was 69.8%. Moreover, the CT50 in the data set on Mus musculus [8] worked out at 6.1 days. The MIC against Bacillus subtilis was found to be 1 µM (≈ 2.44 µg/mL); in the data set on Staphylococcus aureus, 3 µM (≈ 7.32 µg/mL); in the data set on Mycobacterium, 10 µM (≈ 24.4 µg/mL); against Salmonella typhimurium, 10 µM (≈ 24.4 µg/mL).
Take `CC(=O)NCC(=O)N[C@@H](Cc1ccccc1)C(=O)N1Cc2ccccc2C[C@H]1C(=O)N1CC2CCCCC2[C@H]1C(=O)NCC(=O)N[C@@H](CCCN)C(=O)N1Cc2ccccc2C[C@H]1C(=O)N1CC2CCCCC2[C@H]1C(=O)NCC(=O)N[C@@H](Cc1ccccc1)C(=O)N1Cc2ccccc2C[C@H]1C(=O)N1CC2CCCCC2[C@H]1C(=O)NCC(=O)N[C@@H](CCCN)C(=O)N1Cc2ccccc2C[C@H]1C(=O)N[C@@H](CCCN)C(=O)N[C@@H](CCCN)C(=O)N[C@@H](CCCN)C(=O)N[C@@H](CCCN)C(N)=O` (stereo partly specified) (Ac-GF[Tic][Pro(3ξ,4ξ-(CH2)4)]G[Orn][Tic][Pro(3ξ,4ξ-(CH2)4)]GF[Tic][Pro(3ξ,4ξ-(CH2)4)]G[Orn][Tic][Orn][Orn][Orn][Orn]-NH2): the Activity in the data set on Mus musculus [7] was found to be 38.8%; in the data set on Mus musculus [9] it was 67.2%; with Mus musculus [10], 51.2%; with Mus musculus [11] it was 81.1%; in the data set on Mus musculus [12] it was 72.8%. Moreover, in the data set on Mus musculus [8], the CT50 was 4.7 days. Moreover, the MIC with Bacillus subtilis was 0.3 µM (≈ 0.707 µg/mL); in the data set with Staphylococcus aureus, 3 µM (≈ 7.07 µg/mL); in the data set on Mycobacterium, 10 µM (≈ 23.6 µg/mL); in the data set with Salmonella typhimurium, 3 µM (≈ 7.07 µg/mL).
For the compound `CC(=O)NCC(=O)N1Cc2ccccc2C[C@H]1C(=O)N1CC2CCCCC2[C@H]1C(=O)N[C@@H](CCCCN)C(=O)N1Cc2ccccc2C[C@H]1C(=O)N1CC2CCCCC2[C@H]1C(=O)NCC(=O)N1Cc2ccccc2CC1C(=O)N1CC2CCCCC2[C@H]1C(=O)N[C@@H](CCCCN)C(=O)N1Cc2ccccc2C[C@H]1C(=O)N[C@@H](CCCCN)C(=O)N[C@@H](CCCCN)C(=O)N[C@@H](CCCCN)C(=O)N[C@@H](CCCCN)C(N)=O` (stereo partly specified) (Ac-G[Tic][Pro(3ξ,4ξ-(CH2)4)]K[Tic][Pro(3ξ,4ξ-(CH2)4)]G[ξTic][Pro(3ξ,4ξ-(CH2)4)]K[Tic]KKKK-NH2), the hemolysis at 100 µM in data set [1] was 26.7%. Besides, the hemolysis at 25 µM in [2] was 9.2%. In addition, the Activity entry in the data set with Mus musculus [3], with Mus musculus [4] and with Mus musculus [5] was “Non-toxic” in each case. For the same compound, the minimal inhibitory concentration (MIC) stood at 1 µM (≈ 2.03 µg/mL) against Bacillus subtilis, 10 µM (≈ 20.3 µg/mL) in the data set on Staphylococcus aureus, 3 µM (≈ 6.1 µg/mL) against Mycobacterium and 10 µM (≈ 20.3 µg/mL) against Salmonella typhimurium.
For the compound `CC(=O)NCCCC(=O)N[C@@H](Cc1ccccc1)C(=O)N1Cc2ccccc2C[C@H]1C(=O)N1[C@H](C(=O)NCCCC(=O)N[C@@H](CCCCN)C(=O)N2Cc3ccccc3C[C@H]2C(=O)N2[C@H](C(=O)NCCCC(=O)N[C@@H](Cc3ccccc3)C(=O)N3Cc4ccccc4C[C@H]3C(=O)N3[C@H](C(=O)NCCCC(=O)N[C@@H](CCCCN)C(=O)N4Cc5ccccc5C[C@H]4C(=O)N[C@@H](CCCCN)C(=O)N[C@@H](CCCCN)C(=O)N[C@@H](CCCCN)C(=O)N[C@@H](CCCCN)C(N)=O)C[C@@H]4CCCC[C@@H]43)C[C@@H]3CCCC[C@@H]32)C[C@@H]2CCCC[C@@H]21` (Ac-[GABA]F[Tic][Oic][GABA]K[Tic][Oic][GABA]F[Tic][Oic][GABA]K[Tic]KKKK-NH2), the Activity with Mus musculus [7] came out at 39.7%; in the data set on Mus musculus [9], 64.9%; with Mus musculus [10], 54.1%; with Mus musculus [11], 79%; in the data set with Mus musculus [12], 72.7%. The same compound showed a CT50 in the data set with Mus musculus [8] of 5.7 days. Also, the MIC against Bacillus subtilis amounted to 1 µM (≈ 2.55 µg/mL); against Staphylococcus aureus, 10 µM (≈ 25.5 µg/mL); in the data set on Mycobacterium it was 10 µM (≈ 25.5 µg/mL); against Salmonella typhimurium, 100 µM (≈ 255 µg/mL).
As for `CC(C)C[C@H](NC(=O)[C@@H](N)CCCCN)C(=O)N1Cc2ccccc2C[C@H]1C(=O)N1CC2CCCCC2[C@H]1C(=O)NCC(=O)N[C@@H](CCCCN)C(=O)N1Cc2ccccc2C[C@H]1C(=O)N1CC2CCCCC2[C@H]1C(=O)NCC(=O)N[C@@H](Cc1ccccc1)C(=O)N1Cc2ccccc2C[C@H]1C(=O)N1CC2CCCCC2[C@H]1C(=O)NCC(=O)N[C@@H](CCCCN)C(=O)N1Cc2ccccc2C[C@H]1C(=O)N[C@@H](CCCCN)C(=O)N[C@@H](CCCCN)C(=O)N[C@@H](CCCCN)C(=O)N[C@@H](CCCCN)C(N)=O` (stereo partly specified) (H-KL[Tic][Pro(3ξ,4ξ-(CH2)4)]GK[Tic][Pro(3ξ,4ξ-(CH2)4)]GF[Tic][Pro(3ξ,4ξ-(CH2)4)]GK[Tic]KKKK-NH2), the hemolysis at 100 µM in [1] is 43.6%. Moreover, the hemolysis at 25 µM in [2] was found to be 24.9%. Moreover, the Activity result with Mus musculus [3], in the data set with Mus musculus [4] and in the data set with Mus musculus [5] was “Non-toxic” in each case. In addition, the MIC came out at 1 µM (≈ 2.44 µg/mL) against Bacillus subtilis, 30 µM (≈ 73.1 µg/mL) against Staphylococcus aureus, 3 µM (≈ 7.31 µg/mL) in the data set with Mycobacterium and 3 µM (≈ 7.31 µg/mL) against Salmonella typhimurium.
